The values that follow come from US20240158392A1 (Janssen Biotech, Inc., priority 2021, published 2024).

Where two headings read alike, the source gives them in different places.

This assay has as its target SIK2 (Homo sapiens, UniProt Q9H0K1). As to the kind of experiment: SIK2 Enzymatic Assay High Version 2 (High ATP). It is filed as biochemical. The essentials:
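At room temperature, enzyme (6 nM, 2× final) was preincubated with compound for 30 min, then 6 mM ATP and 400 μM HDAC5tide (both 2× final) were added for 2 h. ADP formed was measured by ADP-Glo Max (2 h reagent, 1 h detection) using luminescence.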

The mark [1] stands for this setting: enzyme 6 nM, 6 mM ATP and 400 μM HDAC5tide (each 2× final concentration), 30 minutes pre-incubation, 2 hours, ADP-Glo Max luminescence, read-out: SIK2 high ATP IC50 (μM) (Test Example 2).

Sequence of SIK2 (Q9H0K1 whole entry, species assumed): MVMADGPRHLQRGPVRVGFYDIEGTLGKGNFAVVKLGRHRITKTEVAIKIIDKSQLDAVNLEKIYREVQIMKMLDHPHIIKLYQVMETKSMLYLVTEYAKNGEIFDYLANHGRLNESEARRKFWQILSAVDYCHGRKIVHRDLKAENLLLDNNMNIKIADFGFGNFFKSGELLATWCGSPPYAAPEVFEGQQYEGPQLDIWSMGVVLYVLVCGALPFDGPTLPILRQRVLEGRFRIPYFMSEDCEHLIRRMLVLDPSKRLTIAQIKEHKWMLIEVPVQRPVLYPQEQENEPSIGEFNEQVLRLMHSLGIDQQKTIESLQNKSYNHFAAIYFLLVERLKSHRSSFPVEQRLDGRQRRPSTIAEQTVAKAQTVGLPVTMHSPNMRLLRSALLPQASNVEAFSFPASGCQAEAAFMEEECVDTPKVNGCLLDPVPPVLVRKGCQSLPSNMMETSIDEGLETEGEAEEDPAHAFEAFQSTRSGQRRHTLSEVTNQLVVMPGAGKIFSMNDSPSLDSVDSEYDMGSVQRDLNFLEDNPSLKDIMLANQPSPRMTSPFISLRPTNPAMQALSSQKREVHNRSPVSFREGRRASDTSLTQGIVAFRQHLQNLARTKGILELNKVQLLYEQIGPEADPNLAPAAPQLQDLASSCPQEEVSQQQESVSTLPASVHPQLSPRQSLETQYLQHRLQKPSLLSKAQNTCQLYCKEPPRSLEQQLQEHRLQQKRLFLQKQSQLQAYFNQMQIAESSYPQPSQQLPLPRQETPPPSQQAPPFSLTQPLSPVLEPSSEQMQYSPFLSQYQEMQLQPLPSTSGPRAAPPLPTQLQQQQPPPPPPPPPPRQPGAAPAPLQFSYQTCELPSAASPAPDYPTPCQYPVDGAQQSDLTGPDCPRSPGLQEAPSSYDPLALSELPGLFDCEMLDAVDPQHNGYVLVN

Take `[2H]C([2H])([2H])N1CC[C@@H]1COc1cnc(C)cc1-c1ccn2nc(NC(=O)C3CC3)cc2c1` [Example 576, N-[5-[2-methyl-5-[[(2R)-1-(trideuteriomethyl)azetidin-2-yl]methoxy]-4-pyridyl]pyrazolo[1,5-a]pyridin-2-yl]cyclopropanecarboxamide]: inhibition was half-maximal at 0.0728 µM (IC50). For `Cc1cc(-c2ccn3nc(Nc4cc(C)nc(C)n4)cc3c2)c(OC2CC(NS(C)(=O)=O)C2)cn1` (stereo not shown) [Example 579, N-[3-[[4-[2-[(2,6-dimethylpyrimidin-4-yl)amino]pyrazolo[1,5-a]pyridin-5-yl]-6-methyl-3-pyridyl]oxy]cyclobutyl]methanesulfonamide], the IC50 (in general, the concentration needed to halve the response being measured) under setting [1] worked out at 0.0666 µM. As to `Cc1cc(-c2ccn3nc(Nc4cc(C)nc(C)n4)cc3c2)c(O[C@H]2C[C@H](NS(C)(=O)=O)C2)cn1` [Example 580, N-[3-[[4-[2-[(2,6-dimethylpyrimidin-4-yl)amino]pyrazolo[1,5-a]pyridin-5-yl]-6-methyl-3-pyridyl]oxy]cyclobutyl]methanesulfonamide], the half-maximal inhibitory concentration (IC50) under setting [1] was 0.00198 µM. As to `Cc1cc(-c2ccn3nc(Nc4cc(C)nc(C)n4)cc3c2)c(O[C@H]2CC[C@H](C#N)CC2)cn1` [Example 581, (1r,4r)-4-((4-(2-((2,6-dimethylpyrimidin-4-yl)amino)pyrazolo[1,5-a]pyridin-5-yl)-6-methylpyridin-3-yl)oxy)cyclohexane-1-carbonitrile], the 50% inhibitory concentration (IC50) under setting [1] amounted to 0.0838 µM. The same measure, in the same setting: then `N#Cc1cc(-c2ccn3nc(NC(=O)C4CC4)cc3c2)c(OC[C@H]2C[C@@H](NCc3ccccc3)C2)cn1` [Example 599, N-[5-[5-[[3-(benzylamino)cyclobutyl]methoxy]-2-cyano-4-pyridyl]pyrazolo[1,5-a]pyridin-2-yl]cyclopropanecarboxamide], with 0.141 µM; and `O=C(Nc1cc2cc(-c3cc(C(F)(F)F)ncc3OC[C@@H]3CNCCO3)ccn2n1)C1CC1` [Example 601, N-[5-[5-[[(2S)-morpholin-2-yl]methoxy]-2-(trifluoromethyl)-4-pyridyl]pyrazolo[1,5-a]pyridin-2-yl]cyclopropanecarboxamide], with 0.116 µM. `CCN1CC[C@H]1COc1cnc(C)cc1-c1ccn2nc(NC(=O)C3CC3)cc2c1` [Example 605, N-[5-[5-[[(2S)-1-ethylazetidin-2-yl]methoxy]-2-methyl-4-pyridyl]pyrazolo[1,5-a]pyridin-2-yl]cyclopropanecarboxamide] returned an IC50 of 0.316 µM.

With `Cc1cc(-c2ccn3nc(Nc4cc(C)nc(C)n4)cc3c2)c(OC[C@@H]2C[C@H](O)CO2)cn1` [Example 606, (3S,5S)-5-[[4-[2-[(2,6-dimethylpyrimidin-4-yl)amino]pyrazolo[1,5-a]pyridin-5-yl]-6-methyl-3-pyridyl]oxymethyl]tetrahydrofuran-3-ol], the IC50 under setting [1] is 0.1 µM. `Cc1cc(-c2ccn3nc(Nc4cc(C)nc(C)n4)cc3c2)c(OC[C@H]2C[C@H](O)CO2)cn1` [Example 609, (3S,5R)-5-[[4-[2-[(2,6-dimethylpyrimidin-4-yl)amino]pyrazolo[1,5-a]pyridin-5-yl]-6-methyl-3-pyridyl]oxymethyl]tetrahydrofuran-3-ol]: the IC50 under setting [1] came out at 0.0797 µM. Regarding `Cc1cc(-c2ccn3nc(Nc4cnccn4)cc3c2)c(OC[C@H]2CN(C)CCO2)cn1` [Example 611, 5-[2-methyl-5-[[(2R)-4-methylmorpholin-2-yl]methoxy]-4-pyridyl]-N-pyrazin-2-yl-pyrazolo[1,5-a]pyridin-2-amine], under setting [1], the half-maximal inhibitory concentration (IC50) is 0.116 µM. On the same count and under the same terms, the same measure for `Cc1cc(-c2ccn3nc(Nc4ccc(C)nn4)cc3c2)c(OCC(C)(C)O)cn1` [Example 612, 2-methyl-1-[[6-methyl-4-[2-[(6-methylpyridazin-3-yl)amino]pyrazolo[1,5-a]pyridin-5-yl]-3-pyridyl]oxy]propan-2-ol]: 0.115 µM; for `Cc1cc(-c2ccn3nc(Nc4cnc(C(C)(C)C)cn4)cc3c2)c(OCC(C)(C)O)cn1` [Example 613, 1-[[4-[2-[(5-tert-butylpyrazin-2-yl)amino]pyrazolo[1,5-a]pyridin-5-yl]-6-methyl-3-pyridyl]oxy]-2-methyl-propan-2-ol]: 0.1 µM; for `Cc1cc(-c2ccn3nc(Nc4cc(F)c(C(=O)NC5CC5)c(F)c4)cc3c2)c(O[C@H]2CC[C@H](O)CC2)cn1` [Example 614, N-cyclopropyl-2,6-difluoro-4-[[5-[5-(4-hydroxycyclohexoxy)-2-methyl-4-pyridyl]pyrazolo[1,5-a]pyridin-2-yl]amino]benzamide]: 0.0879 µM.

As to `CCN1CC[C@@H](COc2cnc(C#N)cc2-c2ccn3nc(NC(=O)C4CC4)cc3c2)C1` [Example 616, N-[5-[2-cyano-5-[[(3R)-1-ethylpyrrolidin-3-yl]methoxy]-4-pyridyl]pyrazolo[1,5-a]pyridin-2-yl]cyclopropanecarboxamide], under setting [1], the IC50 was 0.00103 µM. `Cc1cc(-c2ccn3nc(NC(=O)C4(F)CC4)cc3c2)c(OC[C@H]2CCN2C)cn1` [Example 623, 1-fluoro-N-[5-[2-methyl-5-[[(2R)-1-methylazetidin-2-yl]methoxy]-4-pyridyl]pyrazolo[1,5-a]pyridin-2-yl]cyclopropanecarboxamide] displayed a concentration for half-maximal inhibition (IC50) of 0.00644 µM.

In turn, `Cc1cc(-c2ccn3nc(NC(=O)C4CC4(F)F)cc3c2)c(OC[C@H]2CCN2C)cn1` (stereo partly drawn) [Example 624, 2,2-difluoro-N-[5-[2-methyl-5-[[(2R)-1-methylazetidin-2-yl]methoxy]-4-pyridyl]pyrazolo[1,5-a]pyridin-2-yl]cyclopropanecarboxamide] displayed an IC50 of 0.00329 µM. `Cc1cc(Nc2cc3cc(-c4cc(C(F)(F)F)ncc4OC[C@H]4CCN4C)ccn3n2)nc(C)n1` [Example 625, N-(2,6-dimethylpyrimidin-4-yl)-5-[5-[[(2R)-1-methylazetidin-2-yl]methoxy]-2-(trifluoromethyl)-4-pyridyl]pyrazolo[1,5-a]pyridin-2-amine] showed an IC50 of 0.73 µM.

Consider `COc1cc(Nc2cc3cc(-c4cc(C)ncc4OCC(C)(C)O)ccn3n2)cc(OC)c1C(=O)NC1CC1` [Example 626, N-cyclopropyl-4-[[5-[5-(2-hydroxy-2-methyl-propoxy)-2-methyl-4-pyridyl]pyrazolo[1,5-a]pyridin-2-yl]amino]-2,6-dimethoxy-benzamide], for which, under setting [1], the IC50 is 0.0862 µM. Take `CC(=O)N1[C@@H]2COC[C@H]1C[C@@H](Oc1cnc(C)cc1-c1ccn3nc(Nc4cc(C)nc(C)n4)cc3c1)C2` [Example 627, 1-((1R,5S,7s)-7-((4-(2-((2,6-dimethylpyrimidin-4-yl)amino)pyrazolo[1,5-a]pyridin-5-yl)-6-methylpyridin-3-yl)oxy)-3-oxa-9-azabicyclo[3.3.1]nonan-9-yl)ethan-1-one]: 0.0651 µM corresponded to half-maximal inhibition (IC50).

For the compound `CC(=O)N1CCO[C@H](COc2cnc(C)cc2-c2ccn3nc(Nc4cc(C)nc(C)n4)cc3c2)C1` [Example 628, 1-[(2S)-2-[[4-[2-[(2,6-dimethylpyrimidin-4-yl)amino]pyrazolo[1,5-a]pyridin-5-yl]-6-methyl-3-pyridyl]oxymethyl]morpholin-4-yl]ethanone], the IC50 under setting [1] was found to be 0.755 µM. In the case of `Cc1cc(-c2ccn3nc(Nc4cc(C)nc(C)n4)cc3c2)c(OC[C@@H]2CN(S(C)(=O)=O)CCO2)cn1` [Example 629, N-(2,6-dimethylpyrimidin-4-yl)-5-[2-methyl-5-[[(2S)-4-methylsulfonylmorpholin-2-yl]methoxy]-4-pyridyl]pyrazolo[1,5-a]pyridin-2-amine], under setting [1], the 50% inhibitory concentration (IC50) amounted to 0.175 µM. The compound `Cc1cc(-c2ccn3nc(Nc4ccnc(C)n4)cc3c2)c(O[C@H]2C[C@H]3COC[C@@H](C2)N3S(C)(=O)=O)cn1` [Example 630] came in with a 50% inhibitory concentration (IC50) of 1.18 µM. Same read-out and setting: the same measure for `CNC(=O)c1ccnc(Nc2cc3cc(-c4cc(C)ncc4O[C@H]4C[C@H]5COC[C@@H](C4)N5C(C)=O)ccn3n2)c1` [Example 631, 2-((5-(5-(((1R,5S,7s)-9-acetyl-3-oxa-9-azabicyclo[3.3.1]nonan-7-yl)oxy)-2-methylpyridin-4-yl)pyrazolo[1,5-a]pyridin-2-yl)amino)-N-methylisonicotinamide]: 0.0771 µM; for `CC(=O)N1[C@@H]2COC[C@H]1C[C@@H](Oc1cnc(C)cc1-c1ccn3nc(Nc4cc(C(F)(F)F)ccn4)cc3c1)C2` [Example 632, 1-((1R,5S,7s)-7-((6-methyl-4-(2-((4-(trifluoromethyl)pyridin-2-yl)amino)pyrazolo[1,5-a]pyridin-5-yl)pyridin-3-yl)oxy)-3-oxa-9-azabicyclo[3.3.1]nonan-9-yl)ethan-1-one]: 0.00121 µM. On to `Cc1cc(-c2ccn3nc(Nc4cc(C(=O)N(C)C)cc(C)n4)cc3c2)c(OCC(C)(C)O)cn1` [Example 633, 2-[[5-[5-(2-hydroxy-2-methyl-propoxy)-2-methyl-4-pyridyl]pyrazolo[1,5-a]pyridin-2-yl]amino]-N,N,6-trimethyl-pyridine-4-carboxamide], for which the IC50 under setting [1] worked out at 0.105 µM. Take `CNC(=O)c1ccnc(Nc2cc3cc(-c4cc(C)ncc4O[C@H]4C[C@H]5COC[C@@H](C4)N5C(=O)C4CC4)ccn3n2)c1` [Example 634, 2-((5-(5-(((1R,5S,7s)-9-(cyclopropanecarbonyl)-3-oxa-9-azabicyclo[3.3.1]nonan-7-yl)oxy)-2-methylpyridin-4-yl)pyrazolo[1,5-a]pyridin-2-yl)amino)-N-methylisonicotinamide]: the IC50 was 0.363 µM. On to `CNC(=O)c1ccnc(Nc2cc3cc(-c4cc(C)ncc4O[C@H]4C[C@H]5COC[C@@H](C4)N5S(=O)(=O)C4CC4)ccn3n2)c1` [Example 635, 2-((5-(5-(((1R,5S,7s)-9-(cyclopropylsulfonyl)-3-oxa-9-azabicyclo[3.3.1]nonan-7-yl)oxy)-2-methylpyridin-4-yl)pyrazolo[1,5-a]pyridin-2-yl)amino)-N-methylisonicotinamide], for which the IC50 is 0.00197 µM.

As to `Cc1cc(-c2ccn3nc(Nc4cc(C(=O)NC5CC5)cc(C)n4)cc3c2)c(OCC(C)(C)O)cn1` [Example 636, N-cyclopropyl-2-[[5-[5-(2-hydroxy-2-methyl-propoxy)-2-methyl-4-pyridyl]pyrazolo[1,5-a]pyridin-2-yl]amino]-6-methyl-pyridine-4-carboxamide], the IC50 under setting [1] was found to be 0.0135 µM.
